The results in this text go back to PubChem BioAssay (NCI).

Common to all, as to assay: inhibition of tumour cell growth, NCI panel, 48 h
In assay [1] the test system is HOP-92 NSCLC.
Assay [2] has as its system UACC-257 melanoma.
Assay [3] deals with BT-549 breast.
The test system of assay [4] is NCI-H23 lung.
The subject of assay [5] is NCI-H226 lung.
The subject of assay [6] is MDA-MB-435.
Assay [7] concerns DU-145 prostate.
Assay [8] relates to RPMI-8226 leukemia.
Assay [9] concerns SR leukemia.
Assay [10] relates to SK-MEL-28 melanoma.
The test system of assay [11] is SK-OV-3 ovarian.
Assay [12] has as its system ACHN renal.
Assay [13] has as its system SNB-75 CNS.
For assay [14], the system named is TK-10 renal.
Assay [15] concerns OVCAR-5 ovarian.
The test system of assay [16] is PC-3 prostate.
Assay [17] deals with SF-539 CNS.
Assay [18] deals with MDA-MB-231 breast.

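Interpolation was linear, between the two tested concentrations surrounding the appropriate level; five concentrations were tested over 48 hours in 96-well plates. GI50 is the concentration that inhibits growth by half. At the TGI there is no net growth.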 *1 amine or outer side, *2 acyl side, *3 side chain or, on linkers, in order; H or OH if unused. Where a SMILES comes first, the peptide text is derived from it. [ ]: non-standard residue; d: D form. X38 = CSCCCC(N[*:1])C(=O)[*:2]

For the compound `CSCCCC(NC(=O)CNC(=O)C1CCCN1C(=O)C(Cc1ccc(O)cc1)NC(=O)C(Cc1ccccc1)NC(=O)C(CCCN=C(N)N)NC(=O)C(CC(=O)O)NC(=O)C1CCCN1C(=O)C(CC(=O)O)NC(=O)C1CCCN1C(=O)C1CCCN1C(=O)CN)C(N)=O` (stereo not given) (H-GPPDPDRFYPG[X38]-NH2; configuration not given here), the TGI in [1], in assay [2], in assay [3], in assay [4] and in assay [5] was above 50 µM throughout.
For the compound `Nc1ccn(C2CSC(CO)O2)c(=O)n1` (stereo not given), in [4], the GI50 is above 1 mM and the TGI was above 1000 µM.
In the case of `CCCCCCCCCCCCCC1=NCC[N+]1(CCO)Cc1ccccc1` (stereo not given), the GI50 was 1690 nM in assay [6]; 1770 nM in assay [7]; 1850 nM in [8]; 1510 nM in [9]; 1700 nM in assay [10]; 1860 nM in assay [11]. Also, the GI50 in assay [2] is 2000 nM; in assay [12] it was 1630 nM; in [13] it was 1450 nM; in assay [14], 1710 nM; in [15] it was 1570 nM; in [16], 1640 nM. The figures for the GI50 in assay [17] and in assay [18] were 1680 nM and 1540 nM, respectively. For the same compound, the TGI in [6] stood at 3.18 µM; in [7], 3.23 µM; in assay [8], 4.8 µM; in [9], 4.2 µM; in assay [10], 3.22 µM; in assay [11] it was 3.8 µM. The TGI in assay [2] worked out at 3.72 µM; in assay [12] it was 3.1 µM; in assay [13], 2810 nM; in assay [14], 3.28 µM; in assay [15], 3.07 µM; in assay [16], 3.23 µM. The figures for the TGI in [17] and in assay [18] were 3.16 µM and 3.14 µM, respectively.
